Measured values as given in PubChem BioAssay (NCI).
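Interpolation was linear, between the two tested concentrations surrounding the appropriate level; five concentrations were tested over 48 hours in 96-well plates. The concentration for full growth arrest is given as TGI.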

Experiments:
Assay in all cases: NCI anticancer screen, dose series, 48 h
786-0 renal = system: 786-0 renal
A498 renal = system: A498 renal
A549 NSCLC = system: A549 NSCLC
ACHN renal = system: ACHN renal
BT-549 breast = system: BT-549 breast
CAKI-1 renal = system: CAKI-1 renal
CCRF-CEM leukemia = system: CCRF-CEM leukemia
COLO 205 colon = system: COLO 205 colon
DLD-1 colon = system: DLD-1 colon
DMS 114 small cell lung = system: DMS 114 small cell lung
DMS 273 small cell lung = system: DMS 273 small cell lung
DU-145 prostate = system: DU-145 prostate
EKVX NSCLC = system: EKVX NSCLC
HCC-2998 colon = system: HCC-2998 colon
HCT-116 colon = system: HCT-116 colon
HCT-15 colon = system: HCT-15 colon
HL-60(TB) leukemia = system: HL-60(TB) leukemia
HOP-62 NSCLC = system: HOP-62 NSCLC
HOP-92 NSCLC = system: HOP-92 NSCLC
HS 578T breast = system: HS 578T breast
HT29 colon = system: HT29 colon
IGROV1 ovarian = system: IGROV1 ovarian
K-562 leukemia = system: K-562 leukemia
KM12 colon = system: KM12 colon
KM20L2 colon = system: KM20L2 colon
LOX IMVI melanoma = system: LOX IMVI melanoma
LXFL 529 NSCLC = system: LXFL 529 NSCLC
M14 melanoma = system: M14 melanoma
M19-MEL melanoma = system: M19-MEL melanoma
MALME-3M melanoma = system: MALME-3M melanoma
MCF7 breast = system: MCF7 breast
MDA-MB-231 breast = system: MDA-MB-231 breast
MDA-MB-435 = system: MDA-MB-435
MDA-N = system: MDA-N
MOLT-4 leukemia = system: MOLT-4 leukemia
NCI-H226 lung = system: NCI-H226 lung
NCI-H23 lung = system: NCI-H23 lung
NCI-H460 lung = system: NCI-H460 lung
NCI-H522 lung = system: NCI-H522 lung
NCI/ADR-RES ovarian = system: NCI/ADR-RES ovarian
OVCAR-3 ovarian = system: OVCAR-3 ovarian
OVCAR-4 ovarian = system: OVCAR-4 ovarian
OVCAR-5 ovarian = system: OVCAR-5 ovarian
OVCAR-8 ovarian = system: OVCAR-8 ovarian
PC-3 prostate = system: PC-3 prostate
RPMI-8226 leukemia = system: RPMI-8226 leukemia
RXF 393 renal = system: RXF 393 renal
SF-268 CNS = system: SF-268 CNS
SF-295 CNS = system: SF-295 CNS
SF-539 CNS = system: SF-539 CNS
SK-MEL-2 melanoma = system: SK-MEL-2 melanoma
SK-MEL-28 melanoma = system: SK-MEL-28 melanoma
SK-MEL-5 melanoma = system: SK-MEL-5 melanoma
SK-OV-3 ovarian = system: SK-OV-3 ovarian
SN12C renal = system: SN12C renal
SNB-19 CNS = system: SNB-19 CNS
SNB-75 CNS = system: SNB-75 CNS
SNB-78 CNS = system: SNB-78 CNS
SR leukemia = system: SR leukemia
SW-620 colon = system: SW-620 colon
T-47D breast = system: T-47D breast
TK-10 renal = system: TK-10 renal
U251 CNS = system: U251 CNS
UACC-257 melanoma = system: UACC-257 melanoma
UACC-62 melanoma = system: UACC-62 melanoma
UO-31 renal = system: UO-31 renal
XF 498 CNS = system: XF 498 CNS

With `COC1=CC(=O)c2c(O)c3c(c(O)c2C1=O)C=C(C)OC3O` (configuration not stated) as the compound, how does the TGI (786-0 renal) read?
The TGI was 10.9 µM.

And the TGI (A498 renal)?
Its TGI is 4.91 µM.

What about the TGI (A549 NSCLC) of the same compound?
The TGI was 4.35 µM.

And the TGI (ACHN renal)?
Its TGI is 6.89 µM.

What about the TGI (BT-549 breast) of the same compound?
The TGI was 3.5 µM.

What about the TGI (CAKI-1 renal) of the same compound?
Its TGI is 14.5 µM.

And the TGI (CCRF-CEM leukemia)?
Its TGI is 16.1 µM.

What about the TGI (COLO 205 colon) of the same compound?
The TGI was 746 nM.

What about the TGI (DLD-1 colon) of the same compound?
Its TGI is 3.87 µM.

And the TGI (DMS 114 small cell lung)?
The TGI was 2960 nM.

And the TGI (DMS 273 small cell lung)?
The TGI was 2170 nM.

What about the TGI (DU-145 prostate) of the same compound?
Its TGI is 2180 nM.

What about the TGI (EKVX NSCLC) of the same compound?
Its TGI is 20.2 µM.

And the TGI (HCC-2998 colon)?
The TGI was 3.74 µM.

And the TGI (HCT-116 colon)?
The TGI was 2300 nM.

What about the TGI (HCT-15 colon) of the same compound?
The TGI was 2070 nM.

And the TGI (HL-60(TB) leukemia)?
Its TGI is greater than 23 µM.

And the TGI (HOP-62 NSCLC)?
Its TGI is 7.04 µM.

What about the TGI (HOP-92 NSCLC) of the same compound?
Its TGI is 20.9 µM.

And the TGI (HS 578T breast)?
The TGI was 7.9 µM.

What about the TGI (HT29 colon) of the same compound?
Its TGI is 2700 nM.

And the TGI (IGROV1 ovarian)?
Its TGI is 5.57 µM.

What about the TGI (K-562 leukemia) of the same compound?
The TGI was 5.07 µM.

And the TGI (KM12 colon)?
Its TGI is 12.2 µM.

And the TGI (KM20L2 colon)?
Its TGI is 10.4 µM.

And the TGI (LOX IMVI melanoma)?
Its TGI is 1900 nM.

What about the TGI (LXFL 529 NSCLC) of the same compound?
Its TGI is 2700 nM.

And the TGI (M14 melanoma)?
The TGI was 845 nM.

And the TGI (M19-MEL melanoma)?
Its TGI is 502 nM.

What about the TGI (MALME-3M melanoma) of the same compound?
Its TGI is 877 nM.

And the TGI (MCF7 breast)?
The TGI was 1570 nM.

And the TGI (MDA-MB-231 breast)?
Its TGI is 5.09 µM.

What about the TGI (MDA-MB-435) of the same compound?
The TGI was 2500 nM.

And the TGI (MDA-N)?
The TGI was 3.08 µM.

What about the TGI (MOLT-4 leukemia) of the same compound?
The TGI was 5.04 µM.

What about the TGI (NCI-H226 lung) of the same compound?
The TGI was 8.24 µM.

And the TGI (NCI-H23 lung)?
Its TGI is 2250 nM.

And the TGI (NCI-H460 lung)?
The TGI was 3.18 µM.

What about the TGI (NCI-H522 lung) of the same compound?
Its TGI is 3.95 µM.

And the TGI (NCI/ADR-RES ovarian)?
Its TGI is 3.76 µM.

And the TGI (OVCAR-3 ovarian)?
The TGI was 6.33 µM.

What about the TGI (OVCAR-4 ovarian) of the same compound?
Its TGI is 4.39 µM.

And the TGI (OVCAR-5 ovarian)?
Its TGI is 5.73 µM.

What about the TGI (OVCAR-8 ovarian) of the same compound?
The TGI was 2820 nM.

What about the TGI (PC-3 prostate) of the same compound?
The TGI was 16.3 µM.

What about the TGI (RPMI-8226 leukemia) of the same compound?
Its TGI is 5.83 µM.

And the TGI (RXF 393 renal)?
The TGI was 3.92 µM.

What about the TGI (SF-268 CNS) of the same compound?
The TGI was 5.86 µM.

And the TGI (SF-295 CNS)?
The TGI was 5.06 µM.

And the TGI (SF-539 CNS)?
Its TGI is 3.4 µM.

And the TGI (SK-MEL-2 melanoma)?
The TGI was 5.19 µM.

And the TGI (SK-MEL-28 melanoma)?
Its TGI is 3.65 µM.

And the TGI (SK-MEL-5 melanoma)?
The TGI was 660 nM.

What about the TGI (SK-OV-3 ovarian) of the same compound?
Its TGI is 23.7 µM.

What about the TGI (SN12C renal) of the same compound?
Its TGI is 2080 nM.

What about the TGI (SNB-19 CNS) of the same compound?
Its TGI is 7.12 µM.

What about the TGI (SNB-75 CNS) of the same compound?
Its TGI is 3.97 µM.

What about the TGI (SNB-78 CNS) of the same compound?
Its TGI is 4.14 µM.

And the TGI (SR leukemia)?
The TGI was 5.46 µM.

And the TGI (SW-620 colon)?
The TGI was 2840 nM.

What about the TGI (T-47D breast) of the same compound?
The TGI was 7.05 µM.

What about the TGI (TK-10 renal) of the same compound?
The TGI was 7.9 µM.

And the TGI (U251 CNS)?
Its TGI is 7.72 µM.

What about the TGI (UACC-257 melanoma) of the same compound?
Its TGI is 754 nM.

What about the TGI (UACC-62 melanoma) of the same compound?
Its TGI is 1850 nM.

What about the TGI (UO-31 renal) of the same compound?
Its TGI is 13.3 µM.

What about the TGI (XF 498 CNS) of the same compound?
The TGI was 4.72 µM.
